Results as given in patent US4962113A, “Pyridinium derivatives, their production and use” (Takeda Chemical Industries, Ltd, priority 1987, dated 1990).
Read-outs that look alike come from different tables or passages of the source.

Assays:
[1] = system: PAF-induced bronchoconstriction; assay: PAF inhibitory action in bronchoconstriction; format: in vivo, guinea pig (Hartley); settings: oral, 30 mg/kg, one hour before PAF (0.3 μg/kg i.v.)
Description: Female and male Hartley guinea pigs weighing about 400 g were fixed on the dorsal position under anesthesia with an ethylcarbamate (1.5 g/kg, intraperitoneally). One leg of a cannula (4 legs) was inserted into the trachea, and two of the remaining three legs were connected to an artificial respirator (Harvard apparatus rodent respirator). The remaining one leg (side tube) was connected to a bronchospasm transducer 7020 (Ugobasile).
While the air volume per ventilation was adjusted to 5 to 7 ml and the air ventilation rate was controlled at 70 times/min., with a load pressure to the lung set at 10 cm H2 O, the overflown air volume was recorded on Rectigraph (Rectigraph-8S, San-ei Seiki Inc.) through a transducer. After 1 mg/kg of gallamine triethodide was given intravenously to the animals, histamine dihydrochloride (10 μg/kg) was applied intravenously to examine reaction of the animals. PAF(0.3 μg/kg) was administered intravenously, and, 30 sec. later, maximum bronchoconstriction was observed. Under these conditions, bronchoconstriction activity of the test samples was examined. The test sample was suspended in a 5% gum arabic solution, and given orally one hour before the administration of PAF. The compounds obtained in Production Examples 3 and 4 inhibited PAF-induced bronchoconstriction by oral administration (30 mg/kg).

[2] = system: platelet aggregation (PAF); assay: Inhibitory action on PAF-induced rabbit platelet aggregation; format: cell-based; settings: Oryctolagus cuniculus, read-out: inhibitory percentage (platelet aggregation); for inhibition at 3 µM: 3 × 10^-6 M; for inhibition at 0.3 µM: 3 × 10^-7 M; for inhibition at 0.03 µM: 3 × 10^-8 M
Description: Blood was collected directly from the hearts of male rabbits using a syringe containing, as an anticoagulant, 3.15% citric acid (one part to 9 parts of blood). The blood was subjected to centrifuge at 800 rpm for ten minutes at room temperature to obtain platelet rich plasma (PRP). The remaining blood was further subjected to centrifuge at 3000 rpm for ten minnutes to separate platelet poor plasma (PPP) as the supernatant. PRP was diluted with PPP, and the number of platelets was adjusted to about 500,000/ μl. This PRP(250 μl) was stirred for two minutes at 37° C., and there was added a test sample, and the mixture was stirred for further two minutes, followed by addition of PAF of a given concentration. Platelet aggregation was examined by means of a platelet-agglutometer (manufactured by Rika Denki). Platelet aggregation preventing action of the test sample was determined based on the maximum percent light transmission (maximum percent. agglutination).

[3] = system: PAF-induced hypotension; assay: Inhibitory action on PAF-induced hypotension in rats; format: in vivo, rat (Sprague-Dawley); settings: Rattus norvegicus, read-out: Inhibitory Rate (Lowering of Blood Pressure); for inhibition in vivo at 0.1 mg/kg / inhibition in vivo at 0.01 mg/kg / inhibition in vivo at 0.03 mg/kg: iv; for inhibition in vivo at 1 mg/kg / inhibition in vivo at 3 mg/kg: oral
Description: Sprague-Dawley male rats, each weighing about 250 g, were subjected to the experiment. The rats were cannulated on the side of femoral artery for measuring the blood pressure, and on the side of femoral vein for administering the drug. The blood pressure was measured through a pressure transducer and recorded. First, PAF (1 μg/kg) was administered intravenously (i.v.) to examine the extent of lowering of blood pressure. Then, the test samples were administered intravenously or orally. […]
The inhibitory action on PAF-induced hypotension (% inhibition) is indicated as the ratio of blood pressure-lowering degree (Δ mmHg) induced by PAF after administration of test samples relative to blood pressure-lowering degree (Δ mmHg) induced by PAF before administration of test samples.

[4] = Acute Toxicity Test; format: in vivo; settings: oral, 1000 mg/kg, until after one week
Description: Male Jcl-ICR mice (5 wk) were used in groups of five individuals. The animals of the respective groups were orally administered with the compounds (227), (236) and (303) respectively produced in Production Examples 87, 90 and 109 at the dose of 1000 mg/kg.

Row | SMILES | inhibition of PAF-induced bronchoconstriction [1] [%] | inhibition at 3 µM [2] [%] | inhibition at 0.3 µM [2] [%] | inhibition at 0.03 µM [2] [%] | inhibition in vivo at 1 mg/kg ([3]; 1 hr.) [%] | inhibition in vivo at 1 mg/kg ([3]; 2 hr.) [%] | inhibition in vivo at 1 mg/kg ([3]; 4 hr.) [%] | inhibition in vivo at 1 mg/kg ([3]; 6 hr.) [%] | inhibition in vivo at 1 mg/kg ([3]; 8 hr.) [%] | inhibition in vivo at 3 mg/kg ([3]; 1 hr.) [%] | inhibition in vivo at 3 mg/kg ([3]; 2 hr.) [%] | inhibition in vivo at 3 mg/kg ([3]; 4 hr.) [%] | inhibition in vivo at 3 mg/kg ([3]; 6 hr.) [%] | inhibition in vivo at 3 mg/kg ([3]; 8 hr.) [%] | death of mice [4] | inhibition in vivo at 0.01 mg/kg ([3]; 1 hr.) [%] | inhibition in vivo at 0.01 mg/kg ([3]; 2 hr.) [%] | inhibition in vivo at 0.01 mg/kg ([3]; 4 hr.) [%] | inhibition in vivo at 0.01 mg/kg ([3]; 6 hr.) [%] | inhibition in vivo at 0.01 mg/kg ([3]; 8 hr.) [%] | further results
1 | CCCCCCCCCCCCCCCCCCNC(=O)OCC(COC(=O)NCCN(C(=O)c1cc(Br)c[n+](CC)c1)c1ccccc1)OC (centres unmarked) [Production Example 3, 5-bromo-3-[N-[2-(2-methoxy-3-octadecylcarbamoyloxyproxycarbonyl)]aminoethyl-N-phenyl]carbamoyl-1-ethyl pyridinium iodide] | 64.9 | – | – | – | – | – | – | – | – | – | – | – | – | – | – | – | – | – | – | – | –
2 | CCC[n+]1cc(Br)cc(C(=O)N(CCC(=O)NCCNS(=O)(=O)c2cccc3ccccc23)c2ccccc2)c1 [Production Example 109, 5-Bromo-3-[N-[2-[2-(1-naphthylsulfonamide)ethyl]carbamoyl]-ethyl-N-phenyl]carbamoyl-1-propylpyridinium chloride] | – | 100 | 100 | 26 | 56 | 65 | 64 | 54 | 48 | 95 | 97 | 97 | 92 | 80 | No death of mice was observed | – | – | – | – | – | inhibition in vivo at 0.1 mg/kg ([3]; 1 hr.): 100%; inhibition in vivo at 0.1 mg/kg ([3]; 2 hr.): 97%; inhibition in vivo at 0.1 mg/kg ([3]; 4 hr.): 71%; inhibition in vivo at 0.1 mg/kg ([3]; 6 hr.): 50%; inhibition in vivo at 0.1 mg/kg ([3]; 8 hr.): 46%; inhibition in vivo at 0.1 mg/kg ([3]; 5 min, i.v., 5 min.): 100%
3 | CCC[n+]1cc(Br)cc(C(=O)N(CCC(=O)NCCOC(=O)Nc2cccc3ccccc23)c2ccccc2)c1 [Production Example 90, 5-bromo-3-[N-[2-[2-(1-naphthylcarbamoyloxy)ethyl]carbamoyl]ethyl-N-phenyl]carbamoyl-1-propylpyridinium chloride] | – | 100 | 100 | 16 | 69 | 68 | 78 | 71 | 60 | 96 | 99 | 94 | 87 | 81 | No death of mice was observed | 58 | 36 | 17 | 10 | 1 | inhibition in vivo at 0.03 mg/kg ([3]; 1 hr.): 83%; inhibition in vivo at 0.03 mg/kg ([3]; 2 hr.): 64%; inhibition in vivo at 0.03 mg/kg ([3]; 4 hr.): 51%; inhibition in vivo at 0.03 mg/kg ([3]; 6 hr.): 36%; inhibition in vivo at 0.03 mg/kg ([3]; 8 hr.): 23%; inhibition in vivo at 0.01 mg/kg ([3]; 5 min, i.v., 5 min.): 69%; inhibition in vivo at 0.03 mg/kg ([3]; 5 min, i.v., 5 min.): 100%
4 | CCCCCCCCCCCCOCCOCCOC(=O)NCCN(C(=O)c1cc(Br)c[n+](CC)c1)c1ccccc1 [Production Example 4, 5-bromo-3-[N-[2-[2-(2-dodecyloxyethoxy)ethoxycarbonyl]]aminoethyl-N-phenyl]carbamoyl-1-ethylpyridinium iodide] | 59.9 | 100 | 100 | 100 | – | – | – | – | – | – | – | – | – | – | – | – | – | – | – | – | –
5 | CCC[n+]1cc(Br)cc(C(=O)N(CCC(=O)NCCOC(=O)N2CCc3ccccc3C2)c2ccccc2)c1 [Production Example 87, 5-Bromo-3-[N-[2-[[2-(1,2,3,4-tetrahydroisoquinolyl)carbonyloxy]ethyl]carbamoyl]ethyl-N-phenyl]carbamoyl-1-propylpyridinium chloride] | – | 100 | 100 | 49 | 57 | 76 | 86 | 74 | 63 | 100 | 97 | 99 | 93 | 88 | No death of mice was observed | 64 | 51 | 41 | 30 | 23 | inhibition in vivo at 0.01 mg/kg ([3]; 5 min, i.v., 5 min.): 91%
